Measurements published in BindingDB's records for doi:10.7270/Q2BG2MFK (Nmmlsc, 2010).

Molecular target: T1, Regulator of G-protein signaling 19 (Homo sapiens, UniProt P49795)
T1 sequence (P49795 whole entry): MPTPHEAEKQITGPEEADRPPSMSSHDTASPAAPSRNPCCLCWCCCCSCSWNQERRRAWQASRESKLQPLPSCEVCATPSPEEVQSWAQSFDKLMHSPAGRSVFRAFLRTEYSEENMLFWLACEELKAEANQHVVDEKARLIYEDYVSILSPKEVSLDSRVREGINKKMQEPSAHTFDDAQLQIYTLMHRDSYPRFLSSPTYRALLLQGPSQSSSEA
Assay: RGS19-Galphao binding modulators, analog potency, SAR follow-up, biochemical, SAR compounds, multiplexed bead flow cytometry (AID 2311)

Row | SMILES | EC50 | EC50 (inactive by the depositor's call)
1 | CN1CCN(C2=C(Cl)C(=O)C(c3cnc(N4CCCCC4)s3)=C(Cl)C2=O)CC1 | 27 nM | 
2 | CCN=c1scc(C)n1N=Cc1ccc(O)c(O)c1O | 378 nM | 
3 | CCN(CC)S(=O)(=O)c1cccc(C(=O)NN=Cc2ccc(O)c(O)c2O)c1 | > 30000 nM | 
4 | Cc1[nH]n(-c2ccccc2)c(=S)c1C=NCCCN=Cc1c(C)[nH]n(-c2ccccc2)c1=S | 56 nM | 
5 | Cc1cccc(N2CCN(C(=O)COc3nsc4nc(C)cc(C)c34)CC2C)c1 (stereo unspecified) | 590 nM | 
6 | O=c1c2ccccc2sn1-c1ccc(S(=O)(=O)N2CCCC2)cc1 [2-(4-pyrrolidin-1-ylsulfonylphenyl)-1,2-benzothiazol-3-one] | > 30000 nM | 
7 | Cc1cccc(N2CCN(C(=O)Cn3sc4nc(C)cc(C)c4c3=O)CC2C)c1 (stereo unspecified) [2-[2-keto-2-[3-methyl-4-(m-tolyl)piperazino]ethyl]-4,6-dimethyl-isothiazolo[5,4-b]pyridin-3-one] | 100 nM | 
8 | O=c1c2ccccc2sn1-c1ccccc1 [2-phenyl-1,2-benzothiazol-3-one] | > 30000 nM | 
9 | CC(NC(=O)c1sc2cc([N+](=O)[O-])ccc2c1Cl)C(C)(C)C (stereo unspecified) [3-chloranyl-N-(3,3-dimethylbutan-2-yl)-6-nitro-1-benzothiophene-2-carboxamide] | > 30000 nM | 
10 | O=C(NCCCN1CCOCC1)c1sc2cc([N+](=O)[O-])ccc2c1Cl [3-chloranyl-N-(3-morpholin-4-ylpropyl)-6-nitro-1-benzothiophene-2-carboxamide] | 488 nM | 
11 | COC(=O)CCC(=O)Nc1sc(C)c(C)c1C(N)=O [4-[(3-carbamoyl-4,5-dimethyl-2-thienyl)amino]-4-keto-butyric acid methyl ester] | > 30000 nM | 
12 | CCN(CC)S(=O)(=O)c1cccc(-c2n[nH]c(=S)n2N=Cc2ccc(C(=O)OC)cc2)c1 [4-[(E)-[3-[3-(diethylsulfamoyl)phenyl]-5-thioxo-1H-1,2,4-triazol-4-yl]iminomethyl]benzoic acid methyl ester] | > 30000 nM | 
13 | NS(=O)(=O)c1ccc(N=NCc2ccc(O)c(O)c2O)c([N+](=O)[O-])c1 [4-[[(E)-(2,3-dihydroxy-4-oxo-1-cyclohexa-2,5-dienylidene)methyl]hydrazo]-3-nitrobenzenesulfonamide] | 109 nM | 
14 | CCOC(=O)c1sc(NC(=O)CSc2nnc(Cc3ccccc3)o2)c(C#N)c1C [4-cyano-3-methyl-5-[[1-oxo-2-[[5-(phenylmethyl)-1,3,4-oxadiazol-2-yl]thio]ethyl]amino]-2-thiophenecarboxylic acid ethyl ester] | 155 nM | 
15 | CN=c1scc(C)n1N=Cc1ccc(O)c(O)c1O [(4E)-2,3-dihydroxy-4-[[(4-methyl-2-methylimino-1,3-thiazol-3-yl)amino]methylidene]cyclohexa-2,5-dien-1-one] | 209 nM | 
16 | Cc1[nH]n(-c2ccccc2)c(=S)c1/C=N/c1cccc([N+](=O)[O-])c1 [(4E)-5-methyl-4-[(3-nitroanilino)methylene]-2-phenyl-2-pyrazoline-3-thione] | > 30000 nM | 
17 | CC(=O)OCCCNc1cc(Sc2nc3ccccc3s2)c2nonc2c1[N+](=O)[O-] [MLS000521052] | 16 nM | 
18 | Cc1cc(Cl)ccc1/N=c1/ssnc1Cl [MLS000539990] | 115 nM | 
19 | O=C1C(Cl)=C(N2CCCCC2)C(=O)C(Cl)=C1c1cnc(N2CCCCC2)s1 [MLS000550549] | 82 nM | 
20 | CCC(=O)NC(c1ccc(C)cc1)c1cc([N+](=O)[O-])c2cccnc2c1O (stereo unspecified) [MLS000553854] | 1240 nM | 
21 | CCOc1ccccc1-c1c2cc(O)c(=O)cc-2oc2cc(O)c(O)cc12 [MLS000578271] |  | 4690 nM
22 | COc1ccc(C2=CC(=O)C=CC2=O)cc1 [MLS001029846] | 169 nM | 
23 | O=C(COc1ccccc1C(=O)NN=Cc1ccc(O)c(O)c1)NN=Cc1ccc(O)c(O)c1 [N''-[(Z)-(3-hydroxy-4-oxo-1-cyclohexa-2,5-dienylidene)methyl]-2-[2-[[(Z)-(3-hydroxy-4-oxo-1-cyclohexa-2,5-dienylidene)methyl]hydrazo]-2-oxoethoxy]benzohydrazide] | > 30000 nM | 
24 | CC1(C)OC(=O)C(=Cc2ccc(-c3ccc(S(N)(=O)=O)cc3)o2)C(=O)O1 [SMR000273939] | 245 nM | 
25 | O=C(Cc1csc(N2CCOCC2)n1)NN=Cc1ccc(O)c(O)c1O [SMR000369439] | 794 nM | 
26 | Nc1c(C(=O)NCC2CCCO2)sc2nc3c(c(-c4ccco4)c12)CC/C3=C/c1ccco1 (stereo unspecified) [UNM-0000305796] | > 30000 nM | 
